Data: publication PMC5218480 (PLoS ONE, 2017)

Test system: MV-4-11 cells
Assay: Gene expression microarray analysis (Affymetrix PrimeView) and GSEA
Type: cell-based, human
Design: RFU PODN (11730768_x_at) / Fold change /veh PODN (11730768_x_at) / RFU LINC00158 (11744669_a_at) / Fold change /veh LINC00158 (11744669_a_at) / RFU DUSP10 (11751237_a_at) / Fold change /veh DUSP10 (11751237_a_at) / RFU ID3 (11757404_x_at) / Fold change /veh ID3 (11757404_x_at) / RFU PLEKHG5 (11737974_s_at) / Fold change /veh PLEKHG5 (11737974_s_at) / RFU LRRC4B (11730491_at) / Fold change /veh LRRC4B (11730491_at) / RFU GIMAP4 (11747438_a_at) / Fold change /veh GIMAP4 (11747438_a_at) / RFU KRT8 (11758183_x_at) / Fold change /veh KRT8 (11758183_x_at) / RFU CNN1 (11734310_a_at) / Fold change /veh CNN1 (11734310_a_at) / RFU VPS37D (11726825_at) / Fold change /veh VPS37D (11726825_at) / RFU C10orf10 (11716522_x_at) / Fold change /veh C10orf10 (11716522_x_at) / RFU KIR2DL2 /// KIR2DL4 /// KIR2DL5A /// KIR2DL5B /// KIR2DS1 /// KIR2DS2 /// KIR2DS3 /// KIR2DS4 /// KIR3DL3 /// KIR3DL3 /// KIR3DS1 (11738374_at) / Fold change /veh KIR2DL2 /// KIR2DL4 /// KIR2DL5A /// KIR2DL5B /// KIR2DS1 /// KIR2DS2 /// KIR2DS3 /// KIR2DS4 /// KIR3DL3 /// KIR3DL3 /// KIR3DS1 (11738374_at) / RFU C1QL1 (11718748_at) / Fold change /veh C1QL1 (11718748_at) / RFU TMPRSS4 (11747572_a_at) / Fold change /veh TMPRSS4 (11747572_a_at) / RFU HAMP (11756126_x_at) / Fold change /veh HAMP (11756126_x_at) / RFU RNFT2 (11725882_a_at) / Fold change /veh RNFT2 (11725882_a_at) / RFU NR4A2 (11747474_a_at) / Fold change /veh NR4A2 (11747474_a_at) / RFU ABCC12 (11746883_a_at) / Fold change /veh ABCC12 (11746883_a_at) / RFU TMEM136 (11760407_x_at) / Fold change /veh TMEM136 (11760407_x_at) / RFU CLDN22 /// WWC2 (11732394_at) / Fold change /veh CLDN22 /// WWC2 (11732394_at) / RFU HLA-DPB1 (11760878_x_at) / Fold change /veh HLA-DPB1 (11760878_x_at) / RFU SPINT1 (11716480_a_at) / Fold change /veh SPINT1 (11716480_a_at) / RFU GAP43 (11754022_s_at) / Fold change /veh GAP43 (11754022_s_at) / RFU A4GNT (11735810_at) / Fold change /veh A4GNT (11735810_at) / RFU PRB3 (11715151_x_at) / Fold change /veh PRB3 (11715151_x_at) / RFU TUBB4B (11761932_at) / Fold change /veh TUBB4B (11761932_at) / RFU CAPN14 (11732068_a_at) / Fold change /veh CAPN14 (11732068_a_at) / RFU TMCC2 (11721928_a_at) / Fold change /veh TMCC2 (11721928_a_at) / RFU IRGQ (11745062_a_at) / Fold change /veh IRGQ (11745062_a_at) / RFU FAM174B (11720279_a_at) / Fold change /veh FAM174B (11720279_a_at) / RFU TMPRSS4 (11748680_a_at) / Fold change /veh TMPRSS4 (11748680_a_at) / RFU FAM212B (11763350_a_at) / Fold change /veh FAM212B (11763350_a_at) / RFU PLEKHG5 (11743358_a_at) / Fold change /veh PLEKHG5 (11743358_a_at) / RFU ZSCAN30 (11745921_a_at) / Fold change /veh ZSCAN30 (11745921_a_at) / RFU CMKLR1 (11741424_a_at) / Fold change /veh CMKLR1 (11741424_a_at) / RFU LOC101060620 /// MAPK8IP1 (11723275_at) / Fold change /veh LOC101060620 /// MAPK8IP1 (11723275_at) / RFU SPTSSB (11747773_x_at) / Fold change /veh SPTSSB (11747773_x_at) / RFU PRSS12 (11739890_at) / Fold change /veh PRSS12 (11739890_at) / RFU BIN1 (11741810_x_at) / Fold change /veh BIN1 (11741810_x_at) / RFU WNT11 (11732464_a_at) / Fold change /veh WNT11 (11732464_a_at) / RFU C10orf10 (11716521_a_at) / Fold change /veh C10orf10 (11716521_a_at) / RFU C5orf56 (11738089_at) / Fold change /veh C5orf56 (11738089_at) / RFU CYB561 (11721691_x_at) / Fold change /veh CYB561 (11721691_x_at) / RFU ANKRD19P (11752326_a_at) / Fold change /veh ANKRD19P (11752326_a_at) / RFU OR2T12 /// OR2T33 /// OR2T8 (11738714_s_at) / Fold change /veh OR2T12 /// OR2T33 /// OR2T8 (11738714_s_at) / RFU VCAN (11748164_a_at) / Fold change /veh VCAN (11748164_a_at) / RFU JSRP1 (11732532_at) / Fold change /veh JSRP1 (11732532_at) / RFU KRTAP10-11 (11738290_x_at) / Fold change /veh KRTAP10-11 (11738290_x_at) / RFU MYO3A (11730013_a_at) / Fold change /veh MYO3A (11730013_a_at) / RFU EBF3 (11725865_a_at) / Fold change /veh EBF3 (11725865_a_at) / RFU CAMK2N1 (11719241_x_at) / Fold change /veh CAMK2N1 (11719241_x_at) / RFU C5orf56 (11738088_a_at) / Fold change /veh C5orf56 (11738088_a_at) / RFU OLFML3 (11715873_a_at) / Fold change /veh OLFML3 (11715873_a_at) / RFU LOC100653217 /// NTM (11731650_a_at) / Fold change /veh LOC100653217 /// NTM (11731650_a_at) / RFU MAPK11 (11762145_a_at) / Fold change /veh MAPK11 (11762145_a_at) / RFU FIZ1 (11724087_x_at) / Fold change /veh FIZ1 (11724087_x_at) / RFU OASL (11726364_x_at) / Fold change /veh OASL (11726364_x_at) / RFU SOX15 (11748057_x_at) / Fold change /veh SOX15 (11748057_x_at) / RFU CD79A (11719716_a_at) / Fold change /veh CD79A (11719716_a_at) / RFU HIST1H1D (11736915_at) / Fold change /veh HIST1H1D (11736915_at) / RFU CASKIN2 (11723855_a_at) / Fold change /veh CASKIN2 (11723855_a_at) / RFU LOC730098 (11760151_x_at) / Fold change /veh LOC730098 (11760151_x_at) / RFU OR4N2 (11742367_at) / Fold change /veh OR4N2 (11742367_at) / RFU PRRT2 (11749266_a_at) / Fold change /veh PRRT2 (11749266_a_at) / RFU SNX32 (11753110_a_at) / Fold change /veh SNX32 (11753110_a_at) / RFU CDHR5 (11726645_a_at) / Fold change /veh CDHR5 (11726645_a_at) / RFU RCAN1 (11760418_a_at) / Fold change /veh RCAN1 (11760418_a_at) / RFU FAM167A (11723789_a_at) / Fold change /veh FAM167A (11723789_a_at) / RFU FAM26E (11764081_at) / Fold change /veh FAM26E (11764081_at) / RFU ISYNA1 (11749810_s_at) / Fold change /veh ISYNA1 (11749810_s_at) / RFU ACY1 (11761880_at) / Fold change /veh ACY1 (11761880_at) / RFU 11764098_at / Fold change /veh 11764098_at / RFU SAMD14 (11745864_x_at) / Fold change /veh SAMD14 (11745864_x_at) / RFU NPB (11741838_a_at) / Fold change /veh NPB (11741838_a_at) / RFU TMPRSS6 (11731388_a_at) / Fold change /veh TMPRSS6 (11731388_a_at) / RFU KRTAP10-2 (11738614_at) / Fold change /veh KRTAP10-2 (11738614_at) / RFU ARHGAP8 /// PRR5-ARHGAP8 (11727945_x_at) / Fold change /veh ARHGAP8 /// PRR5-ARHGAP8 (11727945_x_at) / RFU KRTAP5-7 /// NADSYN1 (11734609_at) / Fold change /veh KRTAP5-7 /// NADSYN1 (11734609_at) / RFU RASL12 (11751679_a_at) / Fold change /veh RASL12 (11751679_a_at) / RFU CDKN2B (11736163_a_at) / Fold change /veh CDKN2B (11736163_a_at) / RFU PRF1 (11729649_at) / Fold change /veh PRF1 (11729649_at) / RFU, ZNF638 /// ZNF638-IT1 / Fold change vs veh, ZNF638 /// ZNF638-IT1 / RFU, PANK3 / Fold change vs veh, PANK3 / RFU, SH3YL1 / Fold change vs veh, SH3YL1 / RFU, ZEB2 / Fold change vs veh, ZEB2 / RFU, NRIP1 / Fold change vs veh, NRIP1 / RFU, PTTG1IP / Fold change vs veh, PTTG1IP / RFU, CAPN2 / Fold change vs veh, CAPN2 / RFU, MED14 / Fold change vs veh, MED14 / RFU, SNORA58 / Fold change vs veh, SNORA58 / RFU, C1orf63 / Fold change vs veh, C1orf63 / RFU, LRRFIP1 / Fold change vs veh, LRRFIP1 / RFU, NDUFAF7 / Fold change vs veh, NDUFAF7 / RFU, SLC12A2 / Fold change vs veh, SLC12A2 / RFU, IBTK / Fold change vs veh, IBTK / RFU, ESF1 / Fold change vs veh, ESF1 / Fold change vs veh, TMEM50B / RFU, TAOK1 / Fold change vs veh, TAOK1 / RFU, ACBD3 / Fold change vs veh, ACBD3 / RFU, TMA16 / Fold change vs veh, TMA16 / RFU, RWDD3 / Fold change vs veh, RWDD3 / RFU, BCAT1 / Fold change vs veh, BCAT1 / RFU, EDEM3 / Fold change vs veh, EDEM3 / RFU, TMEM33 / Fold change vs veh, TMEM33 / RFU, WDR75 / Fold change vs veh, WDR75 / RFU, AHCTF1 / Fold change vs veh, AHCTF1 / RFU, TFRC / Fold change vs veh, TFRC / RFU, ZDHHC17 / Fold change vs veh, ZDHHC17 / RFU, NOM1 / Fold change vs veh, NOM1 / RFU, ARL8B / Fold change vs veh, ARL8B / RFU, ZBTB11 / Fold change vs veh, ZBTB11 / RFU, TAMM41 / Fold change vs veh, TAMM41 / RFU, KIAA1704 /// LOC100996395 / Fold change vs veh, KIAA1704 /// LOC100996395 / RFU, ING1 / Fold change vs veh, ING1 / RFU, TRMT61B / Fold change vs veh, TRMT61B / RFU, FUBP3 / Fold change vs veh, FUBP3 / RFU, TP53 / Fold change vs veh, TP53 / RFU, TNKS2 / Fold change vs veh, TNKS2 / RFU, ZFP14 / Fold change vs veh, ZFP14 / RFU, ACTR2 / Fold change vs veh, ACTR2 / RFU, PPP3R1 / Fold change vs veh, PPP3R1 / RFU, PIK3R1 / Fold change vs veh, PIK3R1 / RFU, HNRNPA1 / Fold change vs veh, HNRNPA1 / RFU, RNF170 / Fold change vs veh, RNF170 / RFU, ZNF28 / Fold change vs veh, ZNF28 / RFU, RNGTT / Fold change vs veh, RNGTT / RFU, OGT / Fold change vs veh, OGT / RFU, BRD1 / Fold change vs veh, BRD1 / RFU, MARS / Fold change vs veh, MARS / RFU, ZNF655 / Fold change vs veh, ZNF655 / RFU, FAHD1 / Fold change vs veh, FAHD1 / RFU, BDP1 / Fold change vs veh, BDP1 / RFU, LRRCC1 / Fold change vs veh, LRRCC1 / RFU, ARID1A / Fold change vs veh, ARID1A / RFU, ZNF146 / Fold change vs veh, ZNF146 / RFU, ZNF330 / Fold change vs veh, ZNF330 / RFU, GPN3 / Fold change vs veh, GPN3 / RFU, C9orf123 / Fold change vs veh, C9orf123 / RFU, N4BP2L2 / Fold change vs veh, N4BP2L2 / RFU, ARFIP1 / Fold change vs veh, ARFIP1 / RFU, FAM179B / Fold change vs veh, FAM179B / RFU, BCL10 / Fold change vs veh, BCL10 / RFU, UHRF1BP1L / Fold change vs veh, UHRF1BP1L / RFU, BET1 / Fold change vs veh, BET1 / RFU, CNOT2 / Fold change vs veh, CNOT2 / RFU, ZNF268 / Fold change vs veh, ZNF268 / Fold change vs veh, ZNF507 / RFU, DGCR2 / Fold change vs veh, DGCR2 / RFU, WDSUB1 / Fold change vs veh, WDSUB1 / Fold change vs veh, HSP90B1 /// MIR3652 / RFU, ADSS / Fold change vs veh, ADSS / RFU, GK / Fold change vs veh, GK / RFU, ZNF148 / Fold change vs veh, ZNF148 / RFU, TAF9 / Fold change vs veh, TAF9 / RFU, SLC1A5 / Fold change vs veh, SLC1A5 / RFU, SLMO2 / Fold change vs veh, SLMO2 / RFU, ABCC4 / Fold change vs veh, ABCC4 / RFU, LOC101060439 /// RAP1B / Fold change vs veh, LOC101060439 /// RAP1B / RFU, RFX7 / Fold change vs veh, RFX7 / RFU, GTPBP10 / Fold change vs veh, GTPBP10 / RFU, CNEP1R1 / Fold change vs veh, CNEP1R1 / RFU, BIVM-ERCC5 /// ERCC5 / Fold change vs veh, BIVM-ERCC5 /// ERCC5 / RFU, ILF3 / Fold change vs veh, ILF3 / RFU 11762660_at / Fold change /veh 11762660_at / RFU VCAN (11757783_s_at) / Fold change /veh VCAN (11757783_s_at) / RFU DDX43 (11728927_at) / Fold change /veh DDX43 (11728927_at) / RFU KRT8 (11758188_x_at) / Fold change /veh KRT8 (11758188_x_at) / RFU NKD1 (11759106_at) / Fold change /veh NKD1 (11759106_at) / RFU SRD5A1 (11742802_a_at) / Fold change /veh SRD5A1 (11742802_a_at) / RFU TPSAB1 /// TPSB2 (11721975_s_at) / Fold change /veh TPSAB1 /// TPSB2 (11721975_s_at) / RFU GSTM3 (11746129_a_at) / Fold change /veh GSTM3 (11746129_a_at) / RFU IL23R (11737362_x_at) / Fold change /veh IL23R (11737362_x_at) / RFU TMEM51 (11727254_a_at) / Fold change /veh TMEM51 (11727254_a_at) / RFU PIWIL2 (11732686_x_at) / Fold change /veh PIWIL2 (11732686_x_at) / RFU ORM1 (11744905_x_at) / Fold change /veh ORM1 (11744905_x_at) / RFU CCDC152 (11743942_at) / Fold change /veh CCDC152 (11743942_at) / RFU ECM1 (11717891_a_at) / Fold change /veh ECM1 (11717891_a_at) / RFU IL23R (11748794_a_at) / Fold change /veh IL23R (11748794_a_at) / RFU TNFAIP8L3 (11732012_x_at) / Fold change /veh TNFAIP8L3 (11732012_x_at) / RFU MBOAT4 (11741988_at) / Fold change /veh MBOAT4 (11741988_at) / RFU 11764193_at / Fold change /veh 11764193_at / RFU TMEM53 (11763286_at) / Fold change /veh TMEM53 (11763286_at) / RFU MAGEB2 (11727129_at) / Fold change /veh MAGEB2 (11727129_at) / RFU TMEM200A (11744735_a_at) / Fold change /veh TMEM200A (11744735_a_at) / RFU CCDC152 (11751479_a_at) / Fold change /veh CCDC152 (11751479_a_at) / RFU FAM211A (11726209_a_at) / Fold change /veh FAM211A (11726209_a_at) / RFU RGS16 (11746705_a_at) / Fold change /veh RGS16 (11746705_a_at) / RFU VCAN (11755009_s_at) / Fold change /veh VCAN (11755009_s_at) / RFU RHOB (11743442_s_at) / Fold change /veh RHOB (11743442_s_at) / RFU RGS16 (11720943_a_at) / Fold change /veh RGS16 (11720943_a_at) / RFU RGS16 (11720944_at) / Fold change /veh RGS16 (11720944_at) / RFU, VPS4B / Fold change vs veh, VPS4B / RFU, CREB1 / Fold change vs veh, CREB1 / RFU, DNAJC13 / Fold change vs veh, DNAJC13 / RFU, GNAQ / Fold change vs veh, GNAQ / RFU, CDK5R1 / Fold change vs veh, CDK5R1 / RFU, ZRANB3 / Fold change vs veh, ZRANB3 / RFU, CUL4A / Fold change vs veh, CUL4A / RFU, CCNY / Fold change vs veh, CCNY / RFU, UFL1 / Fold change vs veh, UFL1 / RFU, COG3 / Fold change vs veh, COG3 / RFU, DIAPH2 / Fold change vs veh, DIAPH2 / RFU, SKA2 / Fold change vs veh, SKA2 / RFU, AFF3 / Fold change vs veh, AFF3 / RFU, LMF1 / Fold change vs veh, LMF1 / RFU, IPO11 / Fold change vs veh, IPO11 / RFU, DFFB / Fold change vs veh, DFFB / RFU, FOXP1 / Fold change vs veh, FOXP1 / RFU, CARD8 / Fold change vs veh, CARD8 / RFU, STRN3 / Fold change vs veh, STRN3 / RFU, ADK / Fold change vs veh, ADK / RFU, RASSF2 / Fold change vs veh, RASSF2 / RFU, WIPF1 / Fold change vs veh, WIPF1 / RFU, LARP1B / Fold change vs veh, LARP1B / RFU, RASA1 / Fold change vs veh, RASA1 / RFU, RB1 / Fold change vs veh, RB1 / RFU, PPFIA1 / Fold change vs veh, PPFIA1 / RFU, MAT2A / Fold change vs veh, MAT2A / RFU, CCT5 / Fold change vs veh, CCT5 / RFU, WDR92 / Fold change vs veh, WDR92 / RFU, CUX1 / Fold change vs veh, CUX1 / RFU, TTC7A / Fold change vs veh, TTC7A / RFU, TMEM135 / Fold change vs veh, TMEM135 / RFU, DEPTOR / Fold change vs veh, DEPTOR / RFU, CPM / Fold change vs veh, CPM / RFU, DNAJB6 / Fold change vs veh, DNAJB6 / RFU, CACNA2D3 / Fold change vs veh, CACNA2D3 / RFU, DTX4 / Fold change vs veh, DTX4 / RFU, TFCP2 / Fold change vs veh, TFCP2 / RFU, GMCL1 /// GMCL1P1 / Fold change vs veh, GMCL1 /// GMCL1P1 / RFU, AEBP2 / Fold change vs veh, AEBP2 / RFU, SNHG1 /// SNORD22 /// SNORD25 /// SNORD26 /// SNORD27 /// SNORD28 /// SNORD29 /// SNORD31 / Fold change vs veh, SNHG1 /// SNORD22 /// SNORD25 /// SNORD26 /// SNORD27 /// SNORD28 /// SNORD29 /// SNORD31 / Fold change (Aza/veh), C12orf56 (ProbeSet 11735607_a_at) / Fold change (ACY-1035/veh), C12orf56 (ProbeSet 11735607_a_at) / Fold change (Aza/veh), FGFR1OP (ProbeSet 11751329_s_at) / Fold change (ACY-1035/veh), FGFR1OP (ProbeSet 11751329_s_at) / Fold change (Aza/veh), VPS36 (ProbeSet 11739960_a_at) / Fold change (ACY-1035/veh), VPS36 (ProbeSet 11739960_a_at) / RFU SYPL1 (11715823_x_at) / Fold change /veh SYPL1 (11715823_x_at) / RFU IGFBP7 (11715501_s_at) / Fold change /veh IGFBP7 (11715501_s_at) / RFU REEP3 (11722064_at) / Fold change /veh REEP3 (11722064_at) / RFU IGLL1 (11728026_x_at) / Fold change /veh IGLL1 (11728026_x_at): dose or concentration left out as unconfirmed
Conditions: ProbeSet 11728314_at; LIST B

## Nc1ccc(-c2cccs2)cc1NC(=O)c1ccc2c(c1)cc(C1CC1)n2CCN1CCOCC1 [ACY-1035]
  Fold change vs veh, ZNF148: 0.92
